Starred links: 1 amine or outer side, 2 acyl side, 3 side chain; linkers in the order of their positions; H or OH if unused. Positions of bridges follow the written chain, without caps; N, C: chain ends. Non-standard residues stand in square brackets, D forms with d. Residues, ends and D or L forms follow the SMILES beside them. Hyp = O=C(O)[C@@H]1C[C@@H](O)CN1; CH2 = C([*:1])[*:2]

In one assay the target is T1, human MC4R (Homo sapiens, UniProt P32245).
T1 construct: expressed in transfected cells
Put plainly: Functional cAMP assay (CisBio HTRF) in BHK cells expressing human MC4R. The class given is cell-based. To be noted: for MC1R/MC4R cAMP EC50 ratio: MC1R cAMP EC50 divided by MC4R cAMP EC50; for EC50: BHK cells expressing human MC4R, '>' = highest dose used with no response, read-out: MC4R cAMP EC50. Put shortly:
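Stably transfected BHK cells expressing human MC1R or MC4R; cAMP quantified by HTRF (cAMP-d2/cryptate) after 30 min compound stimulation at 25 °C in DMEM-based buffer with 1 mM IBMX. Compounds were prepared as 10-fold serial dilutions starting at 2 μM (working solution, 2× final). Readout after 1 h at 25 °C; non-linear regression.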

In the next assay the target is T2, human MC1R (Homo sapiens, UniProt Q01726).
T2 construct: expressed in transfected cells
As to the kind of experiment: Functional cAMP assay (CisBio HTRF) in BHK cells expressing human MC1R. The class given is cell-based. Particulars: BHK cells expressing human MC1R; '>' = highest dose used with no response; read-out: MC1R cAMP EC50. Here is the method:
In order to assess the potency of the compounds on human MC1R and human MC4R cAMP signalling was measured.
cAMP induction was measured by c-AMPdynamic2 assay, HTRF 62AM4PEC system from CisBio for the human MC1R and human MC4R according to the protocol provided by the vendor. BHK cells expressing the human MC1 or MC4 receptor were generated by stable transfection with expression vectors encoding the cDNA of either MC1R or MC4R.
In details; 25 μl compound—or standard solution were added in the respective wells. Compound was reconstituted in buffer (DMEM w/o phenol red, 10 mM
Hepes, lx Glutamine, 0.1% OV-albumin1, 1 mM IBMX) and serially diluted starting at 2 μM, 10-fold seven times. Dilutions were carried out in the same aforementioned buffer to the desired working concentration ranges (2× higher than the final concentration). 25 μl cell solution was then added and allowed to incubate for 30 min while lightly shaking, at 25° C. […] The provided components for the assay were reconstituted according to the CisBio assay protocol “3.1 supplied reagents and preparation procedure” in MilliQ purification system H2O and diluted 1:20 in lysis buffer. 25 μl cAMP-d2 and 25 μl Cryptate conjugate were added to all wells.
Plates were centrifuged at 1500 rpm for 30 sec and incubated for 1 h, lightly shaking, at 25° C. in a hotel stacker. The plates were read on Mithras LB 940 provided by Berthold Technologies The data were analysed by non-linear regression analysis of binding curves, using the Windows™ program GraphPad™ Prism (GraphPad Software, USA).
The latter is used when no full curve can be obtained in the concentration ranges indicated above.

T2 sequence (Q01726 whole entry): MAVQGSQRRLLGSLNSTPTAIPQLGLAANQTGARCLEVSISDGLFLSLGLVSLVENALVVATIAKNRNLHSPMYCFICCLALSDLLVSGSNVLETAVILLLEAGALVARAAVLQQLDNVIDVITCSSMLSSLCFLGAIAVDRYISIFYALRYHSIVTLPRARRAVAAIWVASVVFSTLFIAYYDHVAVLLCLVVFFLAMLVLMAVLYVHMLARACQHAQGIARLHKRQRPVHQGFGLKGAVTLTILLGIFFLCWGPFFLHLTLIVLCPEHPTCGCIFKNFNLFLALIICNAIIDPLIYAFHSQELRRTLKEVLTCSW
T1 sequence (P32245 whole entry): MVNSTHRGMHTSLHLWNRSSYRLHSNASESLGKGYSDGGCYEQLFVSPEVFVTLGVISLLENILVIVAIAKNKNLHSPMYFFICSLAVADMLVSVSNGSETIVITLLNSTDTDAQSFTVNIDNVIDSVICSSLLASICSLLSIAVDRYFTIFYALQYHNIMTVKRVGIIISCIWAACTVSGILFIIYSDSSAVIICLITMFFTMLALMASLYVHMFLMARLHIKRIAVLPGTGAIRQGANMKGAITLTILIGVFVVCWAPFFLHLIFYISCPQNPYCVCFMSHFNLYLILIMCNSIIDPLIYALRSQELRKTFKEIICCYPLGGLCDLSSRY

As to `C[C@@H]1NC(=O)[C@@H]2CSSC[C@H](NC(=O)[C@H](Cc3c[nH]c4ccccc34)NC(=O)[C@H](CCCNC(=N)N)NC(=O)[C@@H](Cc3ccccc3)NC(=O)[C@@H]3C[C@@H](O)CN3C1=O)C(=O)N[C@@H](C)C(=O)N1C[C@H](O)C[C@H]1C(=O)N[C@H](Cc1ccccc1)C(=O)N[C@@H](CCCNC(=N)N)C(=O)N[C@@H](Cc1c[nH]c3ccccc13)C(=O)N2` [Chem. 14, c[c[Cys-Ala-Hyp-D-Phe-Arg-Trp- Cys]-Ala-Hyp-D-Phe-Arg-Trp]] (cyclo(A[Hyp][dF]RWCA[Hyp][dF]RWC); disulfide 6-12), on human MC4R, the “MC1R/MC4R cAMP EC50 ratio” value is listed as over 3. Also, the EC50 on human MC1R is over 10 nM.
For the compound `C[C@@H]1NC(=O)[C@@H]2CSSC[C@H](NC(=O)[C@H](Cc3c[nH]c4ccccc34)NC(=O)[C@H](CCCN)NC(=O)[C@@H](Cc3ccccc3)NC(=O)[C@H](Cc3c[nH]cn3)NC1=O)C(=O)N[C@@H](C)C(=O)N[C@@H](Cc1c[nH]cn1)C(=O)N[C@H](Cc1ccccc1)C(=O)N[C@@H](CCCN)C(=O)N[C@@H](Cc1c[nH]c3ccccc13)C(=O)N2` [Chem. 16, c[c[Cys-Ala-His-D-Phe-Orn-Trp-Cys]- Ala-His-D-Phe-Orn-Trp]], the EC50 is 0.21 nM on human MC4R and over 1 nM on human MC1R. The “MC1R/MC4R cAMP EC50 ratio” value at human MC4R is listed as over 5.
Take `C[C@@H]1NC(=O)[C@@H]2CSSC[C@H](NC(=O)[C@H](Cc3c[nH]c4ccccc34)NC(=O)[C@H](CCCNC(N)=O)NC(=O)[C@@H](Cc3ccccc3)NC(=O)[C@H](Cc3c[nH]cn3)NC1=O)C(=O)N[C@@H](C)C(=O)N[C@@H](Cc1c[nH]cn1)C(=O)N[C@H](Cc1ccccc1)C(=O)N[C@@H](CCCNC(N)=O)C(=O)N[C@@H](Cc1c[nH]c3ccccc13)C(=O)N2` [Chem. 19, c[c[Cys-Ala-His-D-Phe-Cit-Trp-Cys]- Ala-His-D-Phe-Cit-Trp]]: at human MC4R, the EC50 is 0.13 nM and the “MC1R/MC4R cAMP EC50 ratio” value is listed as over 8. Besides, the EC50 at human MC1R was over 1 nM.
`C[C@@H]1NC(=O)[C@@H]2CSCSC[C@H](NC(=O)[C@H](Cc3c[nH]c4ccccc34)NC(=O)[C@H](CCCNC(=N)N)NC(=O)[C@@H](Cc3ccccc3)NC(=O)[C@@H]3C[C@@H](O)CN3C1=O)C(=O)N[C@@H](C)C(=O)N1C[C@H](O)C[C@H]1C(=O)N[C@H](Cc1ccccc1)C(=O)N[C@@H](CCCNC(=N)N)C(=O)N[C@@H](Cc1c[nH]c3ccccc13)C(=O)N2` [Chem. 23, c[c[Cys-Ala-Hyp-D-Phe-Arg-Trp- Cys]-Ala-Hyp-D-Phe-Arg-Trp]] (cyclo(A[Hyp][dF]RWCA[Hyp][dF]RWC); linker 6-12 via CH2): the “MC1R/MC4R cAMP EC50 ratio” value at human MC4R was over 3. In addition, the EC50 on human MC1R is over 10 nM.
Take `C[C@@H]1NC(=O)[C@@H]2CSSC[C@H](NC(=O)[C@H](Cc3c[nH]c4ccccc34)NC(=O)[C@@H]3C[C@@H](NC(=N)N)CN3C(=O)[C@@H](Cc3ccccc3)NC(=O)[C@H](Cc3c[nH]cn3)NC1=O)C(=O)N[C@@H](C)C(=O)N[C@@H](Cc1c[nH]cn1)C(=O)N[C@H](Cc1ccccc1)C(=O)N1C[C@H](NC(=N)N)C[C@H]1C(=O)N[C@@H](Cc1c[nH]c3ccccc13)C(=O)N2` [Chem. 28, c[c[Cys-Ala-His-D-Phe-4trans- GuaPro-Trp-Cys]-Ala-His-D-Phe- 4trans-GuaPro-Trp]]: the EC50 at human MC1R is over 100 nM.
For `C[C@@H]1NC(=O)[C@@H]2CSSC[C@H](NC(=O)[C@H](Cc3c[nH]c4ccccc34)NC(=O)[C@@H]3C[C@H](NC(=N)N)CN3C(=O)[C@@H](Cc3ccccc3)NC(=O)[C@H](Cc3c[nH]cn3)NC1=O)C(=O)N[C@@H](C)C(=O)N[C@@H](Cc1c[nH]cn1)C(=O)N[C@H](Cc1ccccc1)C(=O)N1C[C@@H](NC(=N)N)C[C@H]1C(=O)N[C@@H](Cc1c[nH]c3ccccc13)C(=O)N2` [Chem. 29, c[c[Cys-Ala-His-D-Phe-4cis-GuaPro- Trp-Cys]-Ala-His-D-Phe-4cis-GuaPro- Trp]], the EC50 on human MC1R is over 100 nM.

For the origin of these results see patent US20200223889A1, “Bicyclic Compounds Capable of Binding to Melanocortin 4 Receptor” (Novo Nordisk A/S, priority 2017, published 2020).
